Among the data in US11174268B2, “Benzenesulfonamide compouds and their use as therapeutic agents” (Xenon Pharmaceuticals Inc., priority 2016, dated 2021) are IC50 values, retold here.

Structures can show the parent of a compound that is named as a salt. Where two headings read alike, the source gives them in different places. Some results are limits rather than exact numbers.

Data set [1] addresses NaV1.6 (Homo sapiens (Human), UniProt Q9UQD0). Briefly: Sodium Influx Assay (Flux), NaV1.6.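 Also: Tetracycline-induced cells, compounds applied for one hour at room temperature with modulators holding channels open, IC50 from percent inhibition of sodium influx.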 The data set is classed as cell-based. As to conditions: Trex HEK293 cells, ANG2 dye, inactivated state.
Data set [2] concerns the target NaV1.1 (Homo sapiens (Human), UniProt P35498). The experiment in a line: Sodium Influx Assay (Flux), NaV1.1.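 Also: channels co-expressed with human β1 subunit and held open by modulators, cells exposed to compounds for one hour at room temperature, IC50 from percent inhibition of influx.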 The format is cell-based. As to conditions: Trex HEK293 cells, ANG2 dye, inactivated state.
The target of data set [3] is NaV1.5 (Homo sapiens (Human), UniProt Q14524). The experiment in a line: Sodium Influx Assay (Flux), NaV1.5.
NaV1.5, sequence (Q14524 other isoform, or with tags, fused parts or gaps): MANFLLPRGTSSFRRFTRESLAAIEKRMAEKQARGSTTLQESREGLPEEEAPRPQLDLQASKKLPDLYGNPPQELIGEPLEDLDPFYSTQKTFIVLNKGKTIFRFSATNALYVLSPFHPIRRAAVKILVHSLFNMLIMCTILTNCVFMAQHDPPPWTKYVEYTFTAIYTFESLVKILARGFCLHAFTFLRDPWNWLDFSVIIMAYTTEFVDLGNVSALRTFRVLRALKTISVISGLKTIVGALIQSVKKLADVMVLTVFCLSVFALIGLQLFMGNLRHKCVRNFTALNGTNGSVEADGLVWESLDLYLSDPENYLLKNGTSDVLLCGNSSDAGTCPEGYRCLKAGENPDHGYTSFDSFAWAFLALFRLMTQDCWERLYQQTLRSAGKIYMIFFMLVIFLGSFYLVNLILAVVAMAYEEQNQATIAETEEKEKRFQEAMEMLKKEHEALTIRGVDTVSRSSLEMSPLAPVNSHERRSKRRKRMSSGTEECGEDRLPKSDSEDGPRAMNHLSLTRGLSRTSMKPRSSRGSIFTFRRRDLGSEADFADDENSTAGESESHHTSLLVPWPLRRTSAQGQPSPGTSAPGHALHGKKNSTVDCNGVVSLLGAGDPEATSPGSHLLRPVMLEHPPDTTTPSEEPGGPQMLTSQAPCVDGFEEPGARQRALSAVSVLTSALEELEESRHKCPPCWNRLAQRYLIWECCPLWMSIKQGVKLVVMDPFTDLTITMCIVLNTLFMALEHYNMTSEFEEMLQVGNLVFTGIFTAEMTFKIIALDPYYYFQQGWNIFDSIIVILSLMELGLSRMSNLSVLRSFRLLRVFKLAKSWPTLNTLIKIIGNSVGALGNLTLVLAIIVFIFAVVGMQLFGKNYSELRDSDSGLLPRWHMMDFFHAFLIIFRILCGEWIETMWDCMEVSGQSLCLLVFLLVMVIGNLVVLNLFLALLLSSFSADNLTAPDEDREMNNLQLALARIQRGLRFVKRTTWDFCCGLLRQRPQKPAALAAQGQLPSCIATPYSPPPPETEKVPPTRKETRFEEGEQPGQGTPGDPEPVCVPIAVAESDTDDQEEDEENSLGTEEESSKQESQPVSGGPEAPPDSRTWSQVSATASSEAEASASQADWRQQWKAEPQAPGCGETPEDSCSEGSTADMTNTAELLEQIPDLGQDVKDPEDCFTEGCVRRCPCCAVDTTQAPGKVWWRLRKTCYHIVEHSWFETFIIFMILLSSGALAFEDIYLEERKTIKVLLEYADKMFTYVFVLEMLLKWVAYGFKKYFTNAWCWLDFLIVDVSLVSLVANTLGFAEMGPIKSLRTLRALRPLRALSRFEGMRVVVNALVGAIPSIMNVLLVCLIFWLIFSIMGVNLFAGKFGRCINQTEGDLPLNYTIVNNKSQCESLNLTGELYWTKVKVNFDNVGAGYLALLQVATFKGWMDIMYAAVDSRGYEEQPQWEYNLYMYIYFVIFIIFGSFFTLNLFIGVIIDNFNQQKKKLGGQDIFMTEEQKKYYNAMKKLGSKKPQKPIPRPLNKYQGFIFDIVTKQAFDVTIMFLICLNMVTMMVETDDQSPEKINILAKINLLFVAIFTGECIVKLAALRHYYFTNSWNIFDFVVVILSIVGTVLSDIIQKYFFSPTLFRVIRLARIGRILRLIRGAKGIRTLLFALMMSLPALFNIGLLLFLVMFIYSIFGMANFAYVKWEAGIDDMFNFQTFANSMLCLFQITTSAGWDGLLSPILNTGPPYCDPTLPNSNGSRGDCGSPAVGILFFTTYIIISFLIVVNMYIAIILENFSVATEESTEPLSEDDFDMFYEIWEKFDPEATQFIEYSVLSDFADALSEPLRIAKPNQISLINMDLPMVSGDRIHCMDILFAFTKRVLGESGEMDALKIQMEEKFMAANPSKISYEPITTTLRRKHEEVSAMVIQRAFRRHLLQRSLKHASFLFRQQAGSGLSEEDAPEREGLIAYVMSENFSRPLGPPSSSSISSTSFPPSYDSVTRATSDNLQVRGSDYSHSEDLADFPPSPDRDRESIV
The mark [4] stands for this setting: read-out: Flux NaV1.5 IC50, Trex HEK293 cells, ANG2 dye, inactivated state.

In general, IC50 refers to the point on the concentration scale where inhibition reaches its midpoint. For the compound `C[C@H](Sc1cc(F)c(S(=O)(=O)Nc2nccs2)cc1Cl)c1ccccc1` [Example 125, (S)-5-chloro-2-fluoro-4-((1-phenylethyl)thio)-N-(thiazol-2-yl)benzenesulfonamide], the IC50 in data set [1] was 1730 nM; in data set [2], 3.26 µM; in data set [3] (setting [4]), 3.35 µM.

For `CC[C@H](Nc1cc(F)c(S(=O)(=O)Nc2nccs2)cc1C)c1ccccc1` [Example 126, (S)-2-fluoro-5-methyl-4-((1-phenylpropyl)amino)-N-(thiazol-2-yl)benzenesulfonamide], the figures for the IC50 in data set [1], in data set [2] and in data set [3] were 114 nM, 0.147 µM and 11.4 µM, respectively.

`O=S(=O)(Nc1cscn1)c1cc(Cl)c(NCc2c(F)cccc2CN2CC3(CCC3)C2)cc1F` [Example 128, 4-((2-((2-azaspiro[3.3]heptan-2-yl)methyl)-6-fluorobenzyl)amino)-5-chloro-2-fluoro-N-(thiazol-4-yl)benzenesulfonamide]: the half-maximal inhibitory concentration (IC50) came out at 208 nM in data set [1], 5.37 µM in data set [2] and 6.72 µM in data set [3].

With `O=S(=O)(Nc1cscn1)c1cc(Cl)c(NCc2ccc(F)cc2CN2CCC2)cc1F` [Example 132, 4-((2-(azetidin-1-ylmethyl)-4-fluorobenzyl)amino)-5-chloro-2-fluoro-N-(thiazol-4-yl)benzenesulfonamide], the figures for the IC50 in data set [1], in data set [2] and in data set [3] (setting [4]) were 5110 nM, 7.87 µM and 24.7 µM, respectively.

For `O=S(=O)(Nc1ncccn1)c1c(F)cc(NCc2c(F)cccc2CN2CCC2)cc1F` [Example 145, 4-((2-(azetidin-1-ylmethyl)-6-fluorobenzyl)amino)-2,6-difluoro-N-(pyrimidin-2-yl)benzenesulfonamide 2,2,2-trifluoroacetate], the IC50 worked out at 467 nM in data set [1], 30 µM in data set [2] and 30 µM in data set [3] (setting [4]).

As to `C[C@H](Nc1cc(F)c(S(=O)(=O)Nc2cscn2)cc1Cl)c1cc(C2CC2)ccc1F` [Example 146, (S)-5-chloro-4-((1-(5-cyclopropyl-2-fluorophenyl)ethyl)amino)-2-fluoro-N-(thiazol-4-yl)benzenesulfonamide], the IC50 in data set [1] was 4120 nM; in data set [2] it was 5.57 µM; in data set [3] (setting [4]), 9.84 µM.

As to `Cc1ccc(F)cc1CNc1cc(F)c(S(=O)(=O)Nc2cscn2)cc1Cl` [Example 147, 5-chloro-2-fluoro-4-((5-fluoro-2-methylbenzyl)amino)-N-(thiazol-4-yl)benzenesulfonamide], the IC50 came to 3310 nM in data set [1], 3.43 µM in data set [2] and 2.72 µM in data set [3] (setting [4]).

On to `C[C@H](Nc1ccc(S(=O)(=O)Nc2cscn2)c(F)c1Cl)c1c(F)cccc1Cl` [Example 148, (S)-3-chloro-4-((1-(2-chloro-6-fluorophenyl)ethyl)amino)-2-fluoro-N-(thiazol-4-yl)benzenesulfonamide], for which the IC50 in data set [1] was 1250 nM; in data set [2] it was 2.95 µM; in data set [3] (setting [4]), 4.84 µM.

Regarding `C[C@H](Nc1ccc(S(=O)(=O)Nc2cscn2)c(F)c1Cl)c1c(F)cccc1F` [Example 149, (S)-3-chloro-4-((1-(2,6-difluorophenyl)ethyl)amino)-2-fluoro-N-(thiazol-4-yl)benzenesulfonamide], the values for the 50% inhibitory concentration (IC50) in data set [1], in data set [2] and in data set [3] (setting [4]) were 780 nM, 3.36 µM and 6.39 µM, respectively.

`O=S(=O)(Nc1cscn1)c1cc(Cl)c(OCc2c(F)ccc(F)c2CN2CCC2)cc1F` [Example 150, 4-((2-(azetidin-1-ylmethyl)-3,6-difluorobenzyl)oxy)-5-chloro-2-fluoro-N-(thiazol-4-yl)benzenesulfonamide]: the IC50 in data set [1] came out at 2820 nM; in data set [2], 30 µM; in data set [3] (setting [4]), 8.66 µM.

Consider `CN1CCN(Cc2cccc(F)c2CNc2cc(F)c(S(=O)(=O)Nc3cscn3)c(F)c2)CC1` [Example 151, 2,6-difluoro-4-((2-fluoro-6-((4-methylpiperazin-1-yl)methyl)-benzyl)amino)-N-(thiazol-4-yl)benzenesulfonamide formate], for which the IC50 was determined as 2100 nM in data set [1], 20.5 µM in data set [2] and 30 µM in data set [3] (setting [4]).

On to `CCOC1(C)CN(Cc2cccc(F)c2CNc2cc(F)c(S(=O)(=O)Nc3cscn3)c(F)c2)C1` [Example 152, 4-((2-((3-ethoxy-3-methylazetidin-1-yl)methyl)-6-fluorobenzyl)amino)-2,6-difluoro-N-(thiazol-4-yl)benzenesulfonamide formate], for which the IC50 in data set [1] is 160 nM; in data set [2] it was 10.3 µM; in data set [3] (setting [4]), 19 µM.

With `COC[C@H]1CCCN1Cc1cccc(F)c1CNc1cc(F)c(S(=O)(=O)Nc2cscn2)c(F)c1` [Example 154, (R)-2,6-difluoro-4-((2-fluoro-6-((2-(methoxymethyl)pyrrolidin-1-yl)methyl)benzyl)amino)-N-(thiazol-4-yl)benzenesulfonamide formate], the IC50 in data set [1] came out at 451 nM; in data set [2] it was 28.8 µM; in data set [3] (setting [4]), 30 µM.

In the case of `O=S(=O)(Nc1cscn1)c1c(F)cc(NCc2c(F)cccc2CN2CCC3(CCO3)C2)cc1F` (stereo not drawn) [Example 155, 4-((2-((1-oxa-6-azaspiro[3.4]octan-6-yl)methyl)-6-fluorobenzyl)amino)-2,6-difluoro-N-(thiazol-4-yl)benzenesulfonamide formate], the figures for the IC50 in data set [1], in data set [2] and in data set [3] (setting [4]) were 250 nM, 30 µM and 30 µM, respectively.

With `O=S(=O)(Nc1cscn1)c1c(F)cc(NCc2c(F)cccc2CN2CCC23COC3)cc1F` [Example 157, 4-((2-((6-oxa-1-azaspiro[3.3]heptan-1-yl)methyl)-6-fluorobenzyl)amino)-2,6-difluoro-N-(thiazol-4-yl)benzenesulfonamide formate], the IC50 in data set [1] was found to be 2360 nM; in data set [2] it was 30 µM; in data set [3] (setting [4]) it was 30 µM.

Regarding `O=S(=O)(Nc1cscn1)c1c(F)cc(NCc2c(F)cccc2CN2CCC3(CCC3)C2)cc1F` [Example 159, 4-((2-((6-azaspiro[3.4]octan-6-yl)methyl)-6-fluorobenzyl)amino)-2,6-difluoro-N-(thiazol-4-yl)benzenesulfonamide formate], the IC50 in data set [1] is 153 nM; in data set [2] it was 9.21 µM; in data set [3], 11.8 µM.

For `O=S(=O)(Nc1cscn1)c1c(F)cc(NCc2c(F)cccc2CN2CC3(C2)CC(F)(F)C3)cc1F` [Example 160, 4-((2-((6,6-difluoro-2-azaspiro[3.3]heptan-2-yl)methyl)-6-fluorobenzyl)amino)-2,6-difluoro-N-(thiazol-4-yl)benzenesulfonamide formate], the values for the IC50 in data set [1], in data set [2] and in data set [3] were 64 nM, 6.51 µM and 23 µM, respectively.

`COCCN(C)Cc1cccc(F)c1CNc1cc(F)c(S(=O)(=O)Nc2cscn2)c(F)c1` [Example 162, 2,6-difluoro-4-((2-fluoro-6-(((2-methoxyethyl)(methyl)amino)methyl)benzyl)amino)-N-(thiazol-4-yl)benzenesulfonamide formate]: the half-maximal inhibitory concentration (IC50) in data set [1] came to 461 nM; in data set [2], 30 µM; in data set [3] (setting [4]) it was 11 µM.

Turning to `O=S(=O)(Nc1cscn1)c1c(F)cc(NCc2c(F)cccc2CN2CC3(C2)CC3(F)F)cc1F` [Example 163, 4-((2-((1,1-difluoro-5-azaspiro[2.3]hexan-5-yl)methyl)-6-fluorobenzyl)amino)-2,6-difluoro-N-(thiazol-4-yl)benzenesulfonamide], the IC50 turned out to be 288 nM in data set [1], 6.35 µM in data set [2] and 30 µM in data set [3] (setting [4]).

As for `CC1CN(Cc2cccc(F)c2CNc2cc(F)c(S(=O)(=O)Nc3cscn3)c(F)c2)C1` [Example 164, 2,6-difluoro-4-((2-fluoro-6-((3-methylazetidin-1-yl)methyl)benzyl)amino)-N-(thiazol-4-yl)benzenesulfonamide formate], the IC50 was determined as 84 nM in data set [1], 22.8 µM in data set [2] and 20.3 µM in data set [3] (setting [4]).

For the compound `CN(C)Cc1cccc(F)c1CNc1cc(F)c(S(=O)(=O)Nc2cscn2)c(F)c1` [Example 165, 4-((2-((dimethylamino)methyl)-6-fluorobenzyl)amino)-2,6-difluoro-N-(thiazol-4-yl)benzenesulfonamide formate], the IC50 in data set [1] is 361 nM; in data set [2], 14.9 µM; in data set [3] it was 20.8 µM.

Regarding `CN(Cc1cccc(F)c1CNc1cc(F)c(S(=O)(=O)Nc2cscn2)c(F)c1)CC1(C)COC1` [Example 167, 2,6-difluoro-4-((2-fluoro-6-((methyl((3-methyloxetan-3-yl)methyl)amino)methyl)benzyl)amino)-N-(thiazol-4-yl)benzenesulfonamide formate], the IC50 in data set [1] is 405 nM; in data set [2], at least 30 µM; in data set [3], at least 30 µM.

`CC1(C)CN(Cc2cccc(F)c2CNc2cc(F)c(S(=O)(=O)Nc3cscn3)c(F)c2)C1` [Example 170, 4-((2-((3,3-dimethylazetidin-1-yl)methyl)-6-fluorobenzyl)amino)-2,6-difluoro-N-(thiazol-4-yl)benzenesulfonamide]: the 50% inhibitory concentration (IC50) in data set [1] was found to be 176 nM; in data set [2] it was 24.7 µM; in data set [3] it was 15.2 µM.

Regarding `O=S(=O)(Nc1cscn1)c1c(F)cc(NCc2c(F)cccc2CN2CCC23CCC3)cc1F` [Example 173, 4-((2-((1-azaspiro[3.3]heptan-1-yl)methyl)-6-fluorobenzyl)amino)-2,6-difluoro-N-(thiazol-4-yl)benzenesulfonamide formate], the IC50 in data set [1] was 50 nM; in data set [2], 7.22 µM; in data set [3] (setting [4]), 19.5 µM.

As to `O=S(=O)(Nc1cscn1)c1c(F)cc(NCc2c(F)cccc2CN2CC3CC3C2)cc1F` (stereo not drawn) [Example 174, 4-((2-((3-azabicyclo[3.1.0]hexan-3-yl)methyl)-6-fluorobenzyl)amino)-2,6-difluoro-N-(thiazol-4-yl)benzenesulfonamide], the IC50 was found to be 35 nM in data set [1], 30 µM in data set [2] and 30 µM in data set [3] (setting [4]).
